Like-named read-outs stand apart in the source and are kept apart here.
Legend:
dd strain male mice = experiment: Acute toxicity test (minimum lethal dose); format: in vivo; settings: intraperitoneal, mortality observed for 14 days
Experimental: Using dd strain male mice weighing 20 ±l g, a test compound was intraperitoneally administered. MLD (the minimum lethal dose) was determined by observing the mortality for 14 days after administration.

HeLa S3 cells = experiment: Growth inhibition test using HeLa S3 cells; format: cell-based
Experimental: The pharmacological activity of Compound (I), Compound (II) and Compound (III) was determined by growth inhibition test using HeLa S3 cells.
Test on growth inhibition of HeLa S3 cells:
HeLa S3 cells diluted to 3×10^4 cells/ml with MEM medium containing 10% calf fetal serum and 2 mM glutamine were separately distributed by 0.1 ml each in each well of a 96 well microtiter plate.
After culturing at 37° C. overnight in a CO2 incubator, 0.05 ml each of a test sample appropriately diluted with MEM medium was added to each well.
After culturing the cells for 72 hours in the CO2 incubator, the culture supernatant was removed. After washing once with phosphate buffered physiological saline (PBS), 0.1 ml each of MEM medium containing 0.02% neutral red was added to each well and then cultured at 37° C. for an hour in the CO2 -incubator to stain the cells. After removing the culture supernatant, the cells were washed once with physiological saline, and the dye was extracted with 0.001 N HCl/30% ethanol. Absorbance at 550 nm of the extract was measured with a microplate reader. By comparing absorbance of extract of intact cells with that of the cells treated with a test compound in known concentrations IC50, i.e. the concentration which inhibited growth of the cells by 50% was determined.

various bacteria = settings: against various bacteria; cited from earlier work
[1] = tested on: lymphocytic leukemia P388; settings: lymphocytic leukemia P388, etc.; cited from earlier work
[2] = Homo sapiens, HeLa S3, 72 h, read-out: IC50 (concentration which inhibited growth of the cells by 50%), HeLa S3 cells, 72 hours, neutral red staining
[3] = Homo sapiens, HeLa S3 cells, 72 hours, neutral red staining, read-out: IC50 (concentration which inhibited growth of the cells by 50%)

COC(=O)C1(C)Nc2c(O[Si](C)(C)C(C)(C)C)cc3c(c2C1=O)C(CBr)CN3C(=O)c1cc2cc(OC)c(OC)c(OC)c2[nH]1 (stereo not drawn) [Compound 1]
Acute Toxicity (MLD), minimum lethal dose (dd strain male mice): 0.25 mg/kg

COC(=O)C1(C)Nc2c(O)cc3c(c2C1O)C(CBr)CN3C(=O)c1cc2cc(OC)c(OC)c(OC)c2[nH]1 (stereo not drawn) [Compound 5]
Acute Toxicity (MLD), minimum lethal dose (dd strain male mice): 0.63 mg/kg
IC50 (HeLa S3 cells; [2]): 0.26 nM

COC(=O)C1(C)Nc2c(O)cc3c(c2C1O)C(CBr)CN3C(=O)c1cc2cc(OC)c(OC)c(OC)c2[nH]1 (stereo not drawn) [Compound 6]
Acute Toxicity (MLD), minimum lethal dose (dd strain male mice): 1.3 mg/kg
IC50 (HeLa S3 cells; read-out: IC50 (concentration which inhibited growth of the cells by 50%), HeLa S3 cells, 72 hours, neutral red staining): 0.2 nM

COC(=O)C1(C)Nc2c(OC(C)=O)cc3c(c2C1=O)C(CBr)CN3C(=O)c1cc2cc(OC)c(OC)c(OC)c2[nH]1 (stereo not drawn) [Compound 7]
Acute Toxicity (MLD), minimum lethal dose (dd strain male mice): 0.063 mg/kg

COC(=O)C1(C)Nc2c(O[Si](C)(C)C(C)(C)C)cc3c(c2C1OC(C)=O)C(CBr)CN3C(=O)c1cc2cc(OC)c(OC)c(OC)c2[nH]1 (stereo not drawn) [Compound 8]
Acute Toxicity (MLD), minimum lethal dose (dd strain male mice): 2.5 mg/kg

COC(=O)C1(C)Nc2c(OC(=O)N(C)C)cc3c(c2C1=O)C(CBr)CN3C(=O)c1cc2cc(OC)c(OC)c(OC)c2[nH]1 (stereo not drawn) [Compound 13]
Acute Toxicity (MLD), minimum lethal dose (dd strain male mice): 2.5 mg/kg

C=CCOC(=O)Oc1cc2c(c3c1NC(C)(C(=O)OC)C3=O)C(CBr)CN2C(=O)c1cc2cc(OC)c(OC)c(OC)c2[nH]1 (stereo not drawn) [Compound 14]
Acute Toxicity (MLD), minimum lethal dose (dd strain male mice): 0.5 mg/kg
IC50 (HeLa S3 cells; [2]): 0.14 nM

CCCCCCCCCCCC(=O)Oc1cc2c(c3c1NC(C)(C(=O)OC)C3=O)C(CBr)CN2C(=O)c1cc2cc(OC)c(OC)c(OC)c2[nH]1 (stereo not drawn) [Compound 15]
Acute Toxicity (MLD), minimum lethal dose (dd strain male mice): 0.5 mg/kg
IC50 (HeLa S3 cells; [2]): 0.042 nM

CCOC(=O)C1(C)Nc2c(O)cc3c(c2C1=O)C(CBr)CN3C(=O)c1cc2cc(OC)c(OC)c(OC)c2[nH]1 (stereo not drawn) [Compound 17]
IC50 (HeLa S3 cells; [3]): 0.019 nM

C=CCOC(=O)C1(C)Nc2c(O)cc3c(c2C1=O)C(CBr)CN3C(=O)c1cc2cc(OC)c(OC)c(OC)c2[nH]1 (stereo not drawn) [Compound 19]
IC50 (HeLa S3 cells; [3]): 0.94 nM

COc1cc2cc(C(=O)N3CC(CBr)c4c3cc(O)c3c4C(=O)C(C)(C(=O)OCc4ccccc4)N3)[nH]c2c(OC)c1OC (stereo not drawn) [Compound 21]
IC50 (HeLa S3 cells; [3]): 1.9 nM

C=CCC1(C)Nc2c(O)cc3c(c2C1=O)C(CBr)CN3C(=O)c1cc2cc(OC)c(OC)c(OC)c2[nH]1 (stereo not drawn) [Compound 25]
IC50 (HeLa S3 cells; [3]): 0.29 nM

COc1cc2cc(C(=O)N3CC(CBr)c4c3cc(O)c3c4C(O)C(C)(COC(C)=O)N3)[nH]c2c(OC)c1OC (stereo not drawn) [Compound 27]
IC50 (HeLa S3 cells; [3]): 3.3 nM

COC(=O)C1(C)NC2=C(C1=O)C13CC1CN(C(=O)c1cc4cc(OC)c(OC)c(OC)c4[nH]1)C3=CC2=O (stereo not drawn) [DC-88A]
antibacterial activity (various bacteria): exhibits not only an antibacterial activity against various bacteria
antitumor activity against lymphocytic leukemia P388 [1]: an antitumor activity against lymphocytic leukemia P388, etc.
IC50 (HeLa S3 cells; [2]): 0.039 nM

COC(=O)C1(C)Nc2c(O)cc3c(c2C1=O)C(CBr)CN3C(=O)c1cc2cc(OC)c(OC)c(OC)c2[nH]1 (stereo not drawn) [DC-89B2, reference compound]
IC50 (HeLa S3 cells; [2]): 0.014 nM
